Values after ≈ are worked out from the molar mass of the structure shown. Active and inactive are the calls of the source. The rule behind the calls is not given here.
Legend:
[1] = system: Staphylococcus aureus; assay: Antibacterial activity against methicillin-resistant Staphylococcus aureus 575 clinical isolate assessed as bacterial growth inhibition incubated for 24 hrs by CLSI based broth microdilution method; type: functional
[2] = system: Escherichia coli; assay: Antibacterial activity against Escherichia coli ATCC 25922 assessed as bacterial growth inhibition incubated for 24 hrs by CLSI based broth microdilution method; type: functional
[3] = system: Staphylococcus aureus; assay: Bactericidal activity against methicillin-resistant Staphylococcus aureus ATCC 33591 at 2 to 4 times MIC incubated for 24 hrs by time kill assay relative to control; type: functional
[4] = system: Staphylococcus aureus; assay: Antibacterial activity against methicillin-resistant Staphylococcus aureus 171 clinical isolate assessed as bacterial growth inhibition incubated for 24 hrs by CLSI based broth microdilution method; type: functional
[5] = Cytotoxicity against human HepG2 cells incubated for 24 hrs by CCK8 assay; type: toxicity, cell-based
[6] = system: Staphylococcus aureus; assay: Antibacterial activity against Staphylococcus aureus ATCC 29213 assessed as bacterial growth inhibition incubated for 24 hrs by CLSI based broth microdilution method; type: functional
[7] = system: Pseudomonas aeruginosa; assay: Antibacterial activity against multidrug-resistant Pseudomonas aeruginosa 126 clinical isolate assessed as bacterial growth inhibition incubated for 24 hrs by CLSI based broth microdilution method; type: functional
[8] = system: Staphylococcus aureus; assay: Antibacterial activity against methicillin-resistant Staphylococcus aureus ATCC 33591 assessed as bacterial growth inhibition incubated for 24 hrs by CLSI based broth microdilution method; type: functional
[9] = system: Acinetobacter baumannii; assay: Antibacterial activity against Acinetobacter baumannii ATCC 19606 assessed as bacterial growth inhibition incubated for 24 hrs by CLSI based broth microdilution method; type: functional
[10] = system: Enterococcus; assay: Antibacterial activity against vancomycin-resistant Enterococcus 80 clinical isolate assessed as bacterial growth inhibition incubated for 24 hrs by CLSI based broth microdilution method; type: functional
[11] = Cytotoxicity against HEK293 cells incubated for 24 hrs by CCK8 assay; type: toxicity, cell-based; conditions: human
[12] = system: Staphylococcus aureus; assay: Antibacterial activity against Staphylococcus aureus ATCC 25923 assessed as bacterial growth inhibition incubated for 24 hrs by CLSI based broth microdilution method; type: functional
[13] = system: Staphylococcus aureus; assay: Bactericidal activity against methicillin-resistant Staphylococcus aureus ATCC 33591 at MIC incubated for 24 hrs by time kill assay relative to control; type: functional
[14] = Cytotoxicity against human A549 cells incubated for 24 hrs by CCK8 assay; type: toxicity, cell-based
[15] = system: Klebsiella pneumoniae; assay: Antibacterial activity against multidrug-resistant Klebsiella pneumoniae 893 clinical isolate assessed as bacterial growth inhibition incubated for 24 hrs by CLSI based broth microdilution method; type: functional
[16] = system: Acinetobacter baumannii; assay: Antibacterial activity against carbapenem-resistant Acinetobacter baumannii 882 clinical isolate assessed as bacterial growth inhibition incubated for 24 hrs by CLSI based broth microdilution method; type: functional
[17] = system: Staphylococcus epidermidis; assay: Antibacterial activity against Staphylococcus epidermidis ATCC 12228 assessed as bacterial growth inhibition incubated for 24 hrs by CLSI based broth microdilution method; type: functional
[18] = system: Mesomycoplasma hyopneumoniae; assay: Anti-mycoplasma activity against Mycoplasma hyopneumoniae J-NCYC10110 assessed as bacterial growth inhibition incubated for 7 days; type: functional; conditions: J-NCYC10110, 168 h, time 7 day
[19] = system: Mycoplasmopsis synoviae; assay: Anti-mycoplasma activity against Mycoplasmopsis synoviae MS-MVU1852-NCTC10124 assessed as bacterial growth inhibition incubated for 7 days; type: functional; conditions: MS-MVU1852-NCTC10124, 168 h, time 7 day
[20] = system: Mycoplasmoides gallisepticum; assay: Anti-mycoplasma activity against Mycoplasma gallisepticum MG-R-NCTC10115 assessed as bacterial growth inhibition incubated for 7 days; type: functional; conditions: MG-R-NCTC10115, 168 h, time 7 day
[21] = system: Mesomycoplasma hyopneumoniae; assay: Anti-mycoplasma activity against Mycoplasma hyopneumoniae LH-NCTC10130 assessed as bacterial growth inhibition incubated for 7 days; type: functional; conditions: time 7 day
[22] = system: Mesomycoplasma hyorhinis; assay: Anti-mycoplasma activity against Mycoplasma hyorhinis BTS-7-NCTC10130 assessed as bacterial growth inhibition incubated for 7 days; type: functional; conditions: BTS-7-NCTC10130, 168 h, time 7 day
[23] = system: Staphylococcus aureus; assay: Antibacterial activity against methicillin-resistant Staphylococcus aureus ATCC 33591 infected in neutropenic Kunming mouse model assessed as reduction in infection-induced inflammatory cell inflammation in liver at 10 mg/kg, ip measured after 7 days; type: functional, organism-based; conditions: time 7.0 day
[24] = Toxicity in neutropenic Kunming mouse model infected with methicillin-resistant Staphylococcus aureus ATCC 33591 assessed as survival rate at 5 mg/kg, ip measured after 7 days relative to control; type: organism-based; conditions: in vivo, 168 h, time 7 day
[25] = system: Staphylococcus aureus; assay: Antibacterial activity against methicillin-resistant Staphylococcus aureus ATCC 33591 infected in neutropenic Kunming mouse model assessed as bacterial load reduction in liver at 10 to 20 mg/kg, ip measured after 2 days; type: functional, organism-based; conditions: dose 10-20 mg/kg, time 2.0 day
[26] = Toxicity in neutropenic Kunming mouse model infected with methicillin-resistant Staphylococcus aureus ATCC 33591 assessed as survival rate at 10 mg/kg, ip measured after 7 days relative to control; type: organism-based; conditions: in vivo, 168 h, time 7 day
[27] = system: Staphylococcus aureus; assay: Antibacterial activity against methicillin-resistant Staphylococcus aureus ATCC 33591 infected in neutropenic Kunming mouse model assessed as reduction in infection-induced inflammatory cell inflammation in lung at 10 mg/kg, ip measured after 7 days; type: functional, organism-based; conditions: time 7.0 day
[28] = system: Staphylococcus aureus; assay: Antibacterial activity against methicillin-resistant Staphylococcus aureus ATCC 33591 infected in neutropenic Kunming mouse model assessed as reduction in infection-induced inflammatory cell inflammation in kidney at 10 mg/kg, ip measured after 7 days; type: functional, organism-based; conditions: time 7.0 day
[29] = system: Staphylococcus aureus; assay: Antibacterial activity against methicillin-resistant Staphylococcus aureus ATCC 33591 infected in neutropenic Kunming mouse model administered intraperitoneally measured after 7 days; type: functional; conditions: ATCC 33591, 168 h, route ip, time 7 day
[30] = system: Staphylococcus aureus; assay: Antibacterial activity against methicillin-resistant Staphylococcus aureus ATCC 33591 infected in neutropenic Kunming mouse model assessed as bacterial load reduction in lung at 10 to 20 mg/kg, ip measured after 2 days; type: functional, organism-based; conditions: dose 10-20 mg/kg, time 2.0 day
[31] = system: Staphylococcus aureus; assay: Antibacterial activity against methicillin-resistant Staphylococcus aureus ATCC 33591 infected in neutropenic Kunming mouse model assessed as bacterial load reduction in kidney at 10 to 20 mg/kg, ip measured after 2 days; type: functional, organism-based; conditions: dose 10-20 mg/kg, time 2.0 day
[32] = Toxicity in neutropenic Kunming mouse model infected with methicillin-resistant Staphylococcus aureus ATCC 33591 assessed as survival rate at 20 mg/kg, ip measured after 7 days relative to control; type: organism-based; conditions: in vivo, 168 h, time 7 day

SMILES	MIC [1] [mg/L]	MIC [2] [mg/L]	MIC [4] [mg/L]	CC50 at 24 h [5] [µM]	MIC [6] [mg/L]	MIC [7] [mg/L]	MIC [8] [mg/L]	MIC [9] [mg/L]	MIC [10] [mg/L]	CC50 at 24 h [11] [µM]	MIC [12] [mg/L]	CC50 at 24 h [14] [µM]	MIC [15] [mg/L]	MIC [16] [mg/L]	MIC [17] [mg/L]	MIC [18] [mg/L]	MIC [19] [mg/L]	MIC [20] [mg/L]	MIC [22] [mg/L]	also measured
C=C[C@]1(C)C[C@@H](OC(=O)CS[C@@H]2C[C@H]3CC[C@@H](C2)N3C)[C@]2(C)[C@H](C)CC[C@]3(CCC(=O)[C@H]32)[C@@H](C)[C@@H]1O [RETAPAMULIN]	64 (≈ 124 µM)	16 (≈ 30.9 µM)	128 (≈ 247 µM)	36.5	4 (≈ 7.73 µM)	128 (≈ 247 µM)	32 (≈ 61.8 µM)	16 (≈ 30.9 µM)	> 128	62.9	4 (≈ 7.73 µM)	74.2	64 (≈ 124 µM)	64 (≈ 124 µM)	32 (≈ 61.8 µM)					Activity [3]: 100%; Activity [13]: 44.49%
C=C[C@]1(C)C[C@@H](OC(=O)CSCCN(CC)CC)[C@]2(C)[C@H](C)CC[C@]3(CCC(=O)[C@H]32)[C@@H](C)[C@@H]1O [TIAMULIN]		64 (≈ 130 µM)			> 128		128 (≈ 259 µM)	64 (≈ 130 µM)			64 (≈ 130 µM)				16 (≈ 32.4 µM)	0.03 (≈ 0.0608 µM)	2 (≈ 4.05 µM)	0.125 (≈ 0.253 µM)	0.03 (≈ 0.0608 µM)	MIC ([21]; Mesomycoplasma hyopneumoniae, LH-NCTC10130, 168 h, read-out: MIC): 0.015 mg/L (≈ 0.0304 µM)
C=C[C@]1(C)C[C@@H](OC(=O)CSC(C)(C)CNC(=O)[C@H](N)C(C)C)[C@]2(C)[C@H](C)CC[C@]3(CCC(=O)[C@H]32)[C@@H](C)[C@@H]1O [VALNEMULIN]	128 (≈ 227 µM)	2 (≈ 3.54 µM)	128 (≈ 227 µM)	37.3	2 (≈ 3.54 µM)	64 (≈ 113 µM)	> 128	2 (≈ 3.54 µM)	128 (≈ 227 µM)	31.1	4 (≈ 7.08 µM)	46.2	128 (≈ 227 µM)	64 (≈ 113 µM)	64 (≈ 113 µM)	0.001 (≈ 0.00177 µM)	0.015 (≈ 0.0266 µM)	0.001 (≈ 0.00177 µM)	0.001 (≈ 0.00177 µM)	Activity [23]: inactive; Survival [24]: 20%; Activity [25]: Active; Survival [26]: 40%; Activity [27]: inactive; Activity [28]: inactive; ED50 [29]: 14 mg/kg; MIC [21]: 0.3 10^-4 ug/ml; Activity [30]: Active; Activity [31]: Active; Survival [32]: 70%
C=C[C@]1(C)C[C@@H](OC(=O)COC(=O)/C=C/c2cccc(C#N)c2)[C@]2(C)[C@H](C)CC[C@]3(CCC(=O)[C@H]32)[C@@H](C)[C@@H]1O	64 (≈ 120 µM)	64 (≈ 120 µM)	32 (≈ 60 µM)	78.5	8 (≈ 15 µM)	128 (≈ 240 µM)	16 (≈ 30 µM)	128 (≈ 240 µM)	16 (≈ 30 µM)	29.2	2 (≈ 3.75 µM)	> 200	128 (≈ 240 µM)	> 128	2 (≈ 3.75 µM)					

Source: ChEMBL document CHEMBL5625206, “Design, synthesis, and evaluation of novel pleuromutilin aryl acrylate derivatives as promising broad-spectrum antibiotics especially for combatting multi-drug resistant gram-negative bacteria” (Eur J Med Chem, 2023)
